According to the kinase profiling compilation of Christmann-Franck et al. (2016):

How the values were obtained:
Test in all cases: radiometric filter-binding kinase assay, Kinase HotSpot
Details in all cases: compound 0.5 µM; ATP 10 µM
[1] = molecular target: EPHB2 (human) (UniProt P29323)
[2] = molecular target: PAK4 (human) (UniProt O96013)
[3] = molecular target: PAK6 (human) (UniProt Q9NQU5)
[4] = molecular target: RAF1 (human) (UniProt P04049)
[5] = molecular target: TGFBR1 (human) (UniProt P36897)
[6] = molecular target: CDK5 CDK5R1 p25 (human) (UniProt Q00535+Q15078)
[7] = molecular target: ERBB4 (human) (UniProt Q15303)
[8] = molecular target: CAMK1 (human) (UniProt Q14012)
[9] = molecular target: MST4 (human) (UniProt Q9P289)
[10] = molecular target: IRAK4 (human) (UniProt Q9NWZ3)
[11] = molecular target: ALK (human) (UniProt Q9UM73)
[12] = molecular target: JAK3 JH1 JH2 (human) (UniProt P52333)
[13] = molecular target: MAPK10 (human) (UniProt P53779)
[14] = molecular target: CLK4 (human) (UniProt Q9HAZ1)
[15] = molecular target: PRKX (human) (UniProt P51817)
[16] = molecular target: CSNK1G3 (human) (UniProt Q9Y6M4)
[17] = molecular target: MARK4 (human) (UniProt Q96L34)
[18] = molecular target: MAP2K2 (human) (UniProt P36507)
Chain of MAP2K2 (human) (P36507 whole entry, looked up): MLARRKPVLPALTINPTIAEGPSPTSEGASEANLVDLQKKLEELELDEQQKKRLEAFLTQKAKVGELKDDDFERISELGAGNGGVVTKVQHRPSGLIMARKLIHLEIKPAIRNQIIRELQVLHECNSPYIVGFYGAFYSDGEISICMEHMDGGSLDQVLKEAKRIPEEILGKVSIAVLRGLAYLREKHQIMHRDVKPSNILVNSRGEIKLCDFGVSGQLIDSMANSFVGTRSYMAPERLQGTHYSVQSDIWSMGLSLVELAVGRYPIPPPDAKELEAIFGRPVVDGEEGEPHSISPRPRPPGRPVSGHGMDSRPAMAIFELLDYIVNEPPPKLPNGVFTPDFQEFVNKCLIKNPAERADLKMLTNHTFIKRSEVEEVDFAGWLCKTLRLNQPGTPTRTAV

[19] = molecular target: NEK7 (human) (UniProt Q8TDX7)
[20] = molecular target: MAP3K8 (human) (UniProt P41279)
[21] = molecular target: MAP3K14 (human) (UniProt Q99558)
[22] = molecular target: FER (human) (UniProt P16591)
[23] = molecular target: HIPK2 (human) (UniProt Q9H2X6)
Chain of HIPK2 (human) (Q9H2X6 whole entry, looked up): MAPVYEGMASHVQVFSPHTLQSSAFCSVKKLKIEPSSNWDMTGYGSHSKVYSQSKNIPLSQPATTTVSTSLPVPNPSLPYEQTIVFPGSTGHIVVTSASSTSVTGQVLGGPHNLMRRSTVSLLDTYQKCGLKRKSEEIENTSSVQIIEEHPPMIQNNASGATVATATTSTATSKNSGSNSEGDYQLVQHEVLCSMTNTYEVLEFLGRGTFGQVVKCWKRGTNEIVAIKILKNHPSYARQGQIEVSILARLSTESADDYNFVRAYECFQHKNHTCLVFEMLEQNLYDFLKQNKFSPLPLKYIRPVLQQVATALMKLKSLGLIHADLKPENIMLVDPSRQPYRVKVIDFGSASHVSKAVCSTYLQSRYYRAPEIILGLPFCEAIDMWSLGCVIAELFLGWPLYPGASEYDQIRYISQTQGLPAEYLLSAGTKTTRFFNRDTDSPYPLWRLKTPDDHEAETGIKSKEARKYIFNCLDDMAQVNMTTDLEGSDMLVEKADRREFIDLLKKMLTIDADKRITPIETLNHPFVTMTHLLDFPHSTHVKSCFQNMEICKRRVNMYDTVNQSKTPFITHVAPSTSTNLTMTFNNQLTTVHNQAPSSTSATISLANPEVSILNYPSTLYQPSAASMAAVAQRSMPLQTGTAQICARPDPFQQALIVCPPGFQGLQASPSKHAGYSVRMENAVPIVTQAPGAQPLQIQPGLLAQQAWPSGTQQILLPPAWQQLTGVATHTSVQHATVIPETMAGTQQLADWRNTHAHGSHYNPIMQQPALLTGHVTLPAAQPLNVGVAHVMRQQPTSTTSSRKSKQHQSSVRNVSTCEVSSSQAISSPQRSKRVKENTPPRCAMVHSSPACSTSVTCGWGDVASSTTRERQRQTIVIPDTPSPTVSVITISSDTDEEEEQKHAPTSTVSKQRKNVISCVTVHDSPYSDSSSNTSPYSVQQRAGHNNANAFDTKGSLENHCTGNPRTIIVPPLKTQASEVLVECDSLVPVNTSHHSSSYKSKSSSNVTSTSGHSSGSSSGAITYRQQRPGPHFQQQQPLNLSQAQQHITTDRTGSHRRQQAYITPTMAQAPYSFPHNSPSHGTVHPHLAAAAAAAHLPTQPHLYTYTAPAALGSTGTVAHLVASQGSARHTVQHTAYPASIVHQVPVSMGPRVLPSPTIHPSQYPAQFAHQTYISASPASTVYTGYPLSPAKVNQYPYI

[24] = molecular target: RPS6KB2 (human) (UniProt Q9UBS0)
Chain of RPS6KB2 (human) (Q9UBS0 whole entry, looked up): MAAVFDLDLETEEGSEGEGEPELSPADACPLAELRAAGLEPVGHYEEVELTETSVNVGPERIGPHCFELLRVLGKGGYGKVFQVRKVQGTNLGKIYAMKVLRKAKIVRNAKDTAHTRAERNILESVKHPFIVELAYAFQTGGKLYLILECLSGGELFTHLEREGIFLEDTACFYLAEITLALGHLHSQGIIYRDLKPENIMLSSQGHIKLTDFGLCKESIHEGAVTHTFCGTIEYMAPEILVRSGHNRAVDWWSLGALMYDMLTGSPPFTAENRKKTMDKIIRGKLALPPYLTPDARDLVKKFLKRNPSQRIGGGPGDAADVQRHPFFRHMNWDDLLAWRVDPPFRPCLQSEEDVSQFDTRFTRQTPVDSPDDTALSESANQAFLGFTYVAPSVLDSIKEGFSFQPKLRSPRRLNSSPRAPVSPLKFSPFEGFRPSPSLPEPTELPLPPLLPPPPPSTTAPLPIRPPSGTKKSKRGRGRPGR

[25] = molecular target: MAPK9 (human) (UniProt P45984)
[26] = molecular target: ROCK1 (human) (UniProt Q13464)
[27] = molecular target: PNCK (human) (UniProt Q6P2M8)
Chain of PNCK (human) (Q6P2M8 whole entry, looked up): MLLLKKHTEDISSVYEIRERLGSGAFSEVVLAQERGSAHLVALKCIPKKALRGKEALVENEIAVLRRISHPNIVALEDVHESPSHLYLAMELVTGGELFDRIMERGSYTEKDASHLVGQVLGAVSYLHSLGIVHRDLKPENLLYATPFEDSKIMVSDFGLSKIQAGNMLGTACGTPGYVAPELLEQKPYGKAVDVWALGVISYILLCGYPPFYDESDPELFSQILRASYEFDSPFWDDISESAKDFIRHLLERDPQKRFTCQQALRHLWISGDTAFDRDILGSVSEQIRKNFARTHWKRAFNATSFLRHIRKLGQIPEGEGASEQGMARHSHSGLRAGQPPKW

[28] = molecular target: NUAK1 (human) (UniProt O60285)
[29] = molecular target: DYRK4 (human) (UniProt Q9NR20)
[30] = molecular target: CSF1R (human) (UniProt P07333)
[31] = molecular target: ULK2 (human) (UniProt Q8IYT8)
Chain of ULK2 (human) (Q8IYT8 whole entry, looked up): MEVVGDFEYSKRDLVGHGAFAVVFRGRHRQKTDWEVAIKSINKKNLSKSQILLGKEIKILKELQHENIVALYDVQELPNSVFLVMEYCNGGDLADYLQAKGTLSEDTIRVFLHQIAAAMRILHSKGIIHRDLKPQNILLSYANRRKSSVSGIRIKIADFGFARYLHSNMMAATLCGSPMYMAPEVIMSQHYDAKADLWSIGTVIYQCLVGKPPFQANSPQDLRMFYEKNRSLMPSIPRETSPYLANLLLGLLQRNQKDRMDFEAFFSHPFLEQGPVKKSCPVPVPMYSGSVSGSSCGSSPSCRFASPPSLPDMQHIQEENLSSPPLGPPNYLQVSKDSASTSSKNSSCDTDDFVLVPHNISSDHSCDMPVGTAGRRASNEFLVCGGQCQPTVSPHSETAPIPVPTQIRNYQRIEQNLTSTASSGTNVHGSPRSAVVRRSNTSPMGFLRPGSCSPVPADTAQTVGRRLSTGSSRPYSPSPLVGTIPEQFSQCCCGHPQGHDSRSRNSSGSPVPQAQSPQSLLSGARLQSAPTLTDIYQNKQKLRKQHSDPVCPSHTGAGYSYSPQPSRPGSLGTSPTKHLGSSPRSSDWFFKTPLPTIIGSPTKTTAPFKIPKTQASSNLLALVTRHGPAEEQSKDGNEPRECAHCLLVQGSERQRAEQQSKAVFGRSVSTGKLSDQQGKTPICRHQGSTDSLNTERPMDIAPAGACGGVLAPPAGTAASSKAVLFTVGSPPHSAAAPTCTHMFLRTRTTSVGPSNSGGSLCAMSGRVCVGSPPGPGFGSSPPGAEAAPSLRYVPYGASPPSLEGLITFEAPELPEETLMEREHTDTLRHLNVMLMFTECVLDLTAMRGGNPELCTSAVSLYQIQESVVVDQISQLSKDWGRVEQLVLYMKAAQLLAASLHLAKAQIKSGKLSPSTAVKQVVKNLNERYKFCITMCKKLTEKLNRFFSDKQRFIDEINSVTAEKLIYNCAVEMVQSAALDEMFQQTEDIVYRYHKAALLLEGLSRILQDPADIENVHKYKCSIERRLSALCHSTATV

[32] = molecular target: DSTYK (human) (UniProt Q6XUX3)
Chain of DSTYK (human) (Q6XUX3 whole entry, looked up): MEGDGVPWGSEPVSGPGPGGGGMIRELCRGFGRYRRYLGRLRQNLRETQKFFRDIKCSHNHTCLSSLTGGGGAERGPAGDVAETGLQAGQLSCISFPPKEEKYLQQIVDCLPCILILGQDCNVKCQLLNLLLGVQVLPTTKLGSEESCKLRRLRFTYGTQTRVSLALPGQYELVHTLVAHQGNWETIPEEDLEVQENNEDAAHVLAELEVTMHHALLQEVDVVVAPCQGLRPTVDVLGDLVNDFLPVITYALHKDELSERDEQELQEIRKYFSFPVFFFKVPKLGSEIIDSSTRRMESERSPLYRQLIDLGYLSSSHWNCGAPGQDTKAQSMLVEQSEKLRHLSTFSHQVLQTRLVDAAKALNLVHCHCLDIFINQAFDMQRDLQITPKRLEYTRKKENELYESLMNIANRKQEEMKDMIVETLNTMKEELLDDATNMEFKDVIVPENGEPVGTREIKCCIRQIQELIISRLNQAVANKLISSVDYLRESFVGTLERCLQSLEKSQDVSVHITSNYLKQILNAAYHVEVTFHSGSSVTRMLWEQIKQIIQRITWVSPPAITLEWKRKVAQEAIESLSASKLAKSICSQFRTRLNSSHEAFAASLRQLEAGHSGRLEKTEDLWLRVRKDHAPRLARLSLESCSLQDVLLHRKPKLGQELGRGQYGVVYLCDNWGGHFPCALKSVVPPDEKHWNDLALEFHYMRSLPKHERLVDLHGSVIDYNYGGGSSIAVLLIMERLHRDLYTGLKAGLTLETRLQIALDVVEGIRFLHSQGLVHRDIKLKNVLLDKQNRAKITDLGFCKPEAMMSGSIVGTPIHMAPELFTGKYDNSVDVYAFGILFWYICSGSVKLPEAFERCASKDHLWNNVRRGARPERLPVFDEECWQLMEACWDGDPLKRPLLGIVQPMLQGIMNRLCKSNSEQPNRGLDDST

[33] = molecular target: ZAP70 (human) (UniProt P43403)
[34] = molecular target: LTK (human) (UniProt P29376)
[35] = molecular target: MST1R (human) (UniProt Q04912)
[36] = molecular target: CLK2 (human) (UniProt P49760)
[37] = molecular target: CLK3 (human) (UniProt P49761)
[38] = molecular target: STK11 (human) (UniProt Q15831)
[39] = molecular target: KDR (human) (UniProt P35968)
[40] = molecular target: TEK (human) (UniProt Q02763)
[41] = molecular target: TAOK2 (human) (UniProt Q9UL54)
[42] = molecular target: PHKG2 (human) (UniProt P15735)

Chain of PAK6 (human) (Q9NQU5 whole entry, looked up): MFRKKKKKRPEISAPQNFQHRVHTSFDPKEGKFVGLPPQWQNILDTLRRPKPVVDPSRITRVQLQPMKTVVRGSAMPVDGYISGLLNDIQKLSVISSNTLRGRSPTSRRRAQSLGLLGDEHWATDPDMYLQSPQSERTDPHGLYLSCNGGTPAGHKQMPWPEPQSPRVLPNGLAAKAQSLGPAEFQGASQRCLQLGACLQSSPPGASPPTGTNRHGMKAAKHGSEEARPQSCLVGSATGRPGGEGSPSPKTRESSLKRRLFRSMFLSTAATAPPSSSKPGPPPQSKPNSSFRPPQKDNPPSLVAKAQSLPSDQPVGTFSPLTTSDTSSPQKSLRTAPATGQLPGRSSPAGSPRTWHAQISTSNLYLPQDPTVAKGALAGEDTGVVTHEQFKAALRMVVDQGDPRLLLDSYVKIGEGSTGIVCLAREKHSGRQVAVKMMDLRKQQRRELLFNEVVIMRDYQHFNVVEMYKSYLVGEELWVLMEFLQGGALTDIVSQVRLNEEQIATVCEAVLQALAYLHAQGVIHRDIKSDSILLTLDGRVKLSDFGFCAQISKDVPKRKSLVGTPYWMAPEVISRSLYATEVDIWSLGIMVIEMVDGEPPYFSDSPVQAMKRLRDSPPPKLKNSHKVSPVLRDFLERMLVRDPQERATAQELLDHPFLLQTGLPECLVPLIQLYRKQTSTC

O=C1NC(=O)/C(=C\c2ccc3nccnc3c2)S1
residual activity [1]: 94.7%
residual activity [2]: 88.5%
residual activity [3]: 107%
residual activity [4]: 92.3%
residual activity [5]: 98.5%
residual activity [6]: 83.2%
residual activity [7]: 99.4%
residual activity [8]: 95.7%
residual activity [9]: 91%
residual activity [10]: 99.9%
residual activity [11]: 93.3%
residual activity [12]: 97.2%
residual activity [13]: 96%
residual activity [14]: 47.5%
residual activity [15]: 89.2%
residual activity [16]: 79.9%
residual activity [17]: 89.9%
residual activity [18]: 93.5%
residual activity [19]: 105%
residual activity [20]: 99.6%
residual activity [21]: 101%
residual activity [22]: 96.2%
residual activity [23]: 101%
residual activity [24]: 94.7%
residual activity [25]: 96%
residual activity [26]: 94%
residual activity [27]: 101%
residual activity [28]: 92.8%
residual activity [29]: 96.5%
residual activity [30]: 110%
residual activity [31]: 104%
residual activity [32]: 89.9%
residual activity [33]: 92.4%
residual activity [34]: 94.7%
residual activity [35]: 97.8%
residual activity [36]: 74%
residual activity [37]: 80.8%
residual activity [38]: 96.6%
residual activity [39]: 92.6%
residual activity [40]: 89.5%
residual activity [41]: 89.9%
residual activity [42]: 97.4%

Oc1ccc(Nc2nc(-c3ccc(Cl)cc3)cs2)cc1
residual activity [1]: 101%
residual activity [2]: 102%
residual activity [3]: 100%
residual activity [4]: 95.7%
residual activity [5]: 99.9%
residual activity [6]: 85.9%
residual activity [7]: 83.3%
residual activity [8]: 111%
residual activity [9]: 105%
residual activity [10]: 111%
residual activity [11]: 111%
residual activity [12]: 92.2%
residual activity [13]: 101%
residual activity [14]: 98.8%
residual activity [15]: 99.6%
residual activity [16]: 103%
residual activity [17]: 103%
residual activity [18]: 109%
residual activity [19]: 106%
residual activity [20]: 94.9%
residual activity [21]: 102%
residual activity [22]: 90.3%
residual activity [23]: 90.9%
residual activity [24]: 99.8%
residual activity [25]: 98.3%
residual activity [26]: 103%
residual activity [27]: 100%
residual activity [28]: 90.7%
residual activity [29]: 95.9%
residual activity [30]: 104%
residual activity [31]: 101%
residual activity [32]: 104%
residual activity [33]: 94.7%
residual activity [34]: 104%
residual activity [35]: 92.5%
residual activity [36]: 102%
residual activity [37]: 92.6%
residual activity [38]: 91.1%
residual activity [39]: 101%
residual activity [40]: 104%
residual activity [41]: 101%
residual activity [42]: 99.9%

Cn1cnc2cc3c(Nc4cccc(Br)c4)ncnc3cc21
residual activity [1]: 76.2%
residual activity [2]: 105%
residual activity [3]: 95%
residual activity [4]: 98.6%
residual activity [5]: 97.6%
residual activity [6]: 88%
residual activity [7]: 75.5%
residual activity [8]: 106%
residual activity [9]: 94.3%
residual activity [10]: 89.1%
residual activity [11]: 92.4%
residual activity [12]: 106%
residual activity [13]: 104%
residual activity [14]: 88.5%
residual activity [15]: 101%
residual activity [16]: 88.1%
residual activity [17]: 105%
residual activity [18]: 101%
residual activity [19]: 99.4%
residual activity [20]: 90.1%
residual activity [21]: 90.6%
residual activity [22]: 90.6%
residual activity [23]: 106%
residual activity [24]: 96.8%
residual activity [25]: 92.3%
residual activity [26]: 98.6%
residual activity [27]: 101%
residual activity [28]: 90.5%
residual activity [29]: 97.5%
residual activity [30]: 94.4%
residual activity [31]: 74.8%
residual activity [32]: 97.5%
residual activity [33]: 110%
residual activity [34]: 77.9%
residual activity [35]: 96.5%
residual activity [36]: 93.9%
residual activity [37]: 100%
residual activity [38]: 91.1%
residual activity [39]: 71.7%
residual activity [40]: 98.9%
residual activity [41]: 103%
residual activity [42]: 103%
